Source: US11560391B2, “Sulfonylurea compounds as inhibitors of interleukin-1 activity” (Genentech, Inc., priority 2018, dated 2023)
Read-outs that look alike come from different tables or passages of the source.

Target: T1, NLRP3 inflammasome (Homo sapiens, UniProt Q96P20)
T1 construct: freshly isolated from human peripheral blood from healthy donors; StemCells Technologies; host or cells: primary human PBMCs
Assay: NLRP3 inflammasome activation assay in LPS-primed, nigericin-stimulated PBMCs, IL-1β release
Format: cell-based
Settings: 10 μM nigericin
Procedure: Some of the following assays were used to determine the inhibitory activity of the compounds on the NLRP3 inflammasome using a common inflammasome activation stimuli-nigericin.
Human peripheral blood mononuclear cells (PBMCs), consisting of lymphocytes (T, B and NK cells), monocytes and dendritic cells, are freshly isolated from human peripheral blood from healthy donors. Cells are obtained through an IRB approved donor program by iXCells Biotechnologies where all the donors are tested for bacterial and viral infections. Cells are purified from peripheral blood using ficoll gradient centrifugation.
Fresh or cryopreserved PMBCs are seeded in V-bottom 96-well plate at 0.5-1×10^5 cells per well and incubated overnight at 37° C. with 5% CO2 in RPMI 1640 medium with GlutaMAX supplement, 4.5 g/L D-glucose, 10% Fetal Bovine Serum (FBS), […] Sodium Pyruvate, 1% Penicillin/Streptomycin, 10 mM HEPES and 0.05 mM of […]. Freshly isolated or cryopreserved KCs cells are seeded in flat-bottom 96-well plates at 0.6-1.5×10^5 cells/well and incubated overnight at 37° C., 5% CO2 in RPMI 1640 Medium with GlutaMAX supplement, FBS, 1% Penicillin/Streptomycin and 10 mM HEPES. The following day, the cells are primed with 100 ng/mL of lipopolysaccharides (LPS; Sigma Aldrich) in FBS-free RPMI 1640 for 3 h. After the priming step, the media is removed and PBMCs are pre-incubated with serial concentrations of test compounds (0.00017-10 uM) or vehicle (DMSO) for 30 min in FBS-free media prior to addition of the NLRP3 activator. Cells are then stimulated with 10 μM Nigericin (Sigma Aldrich; InvivoGen) for 1.5 h. Plates were centrifuged at 1,500 rpm for 3 minutes to pellet cells and supernatant was transferred into new plates for subsequent experiments.
For ELISA assays cells are seeded into 96-well plates. Post study, supernatants are removed and the levels of mature IL-1β, IL18 and TNFα (Quantikine ELISA, R&D systems) are measured in cell conditioned media by ELISA according to manufacturer's instructions.
Human frozen PBMCs were purchased from StemCells Technologies. Cells were rapidly thawed in 37° C. water bath and resuspended in fresh assay media consisting of RPMI 1640 Medium containing 1% sodium pyruvate, 10 mM HEPES, 2.5 g/L glucose and 55 μM 2-Mercaptoethanol. Cell density was adjusted to 8.1×10^5 cells/mL. Cells were primed by adding lipopolysaccharide (Invivogen Ultrapure lipopolysaccharide from E. coli, tlrl-3pelps) at a final concentration of 100 ng/mL in cell suspension. 37 μL of cell suspension with LPS was seeded per well of a 384 well plate and incubated for 3 hours at 37° C. and 5% CO2. After priming, PBMCs were preincubated with serially diluted test compounds with starting concentration of 40 μM followed by 2-fold dilution for a 20-point curve or vehicle (DMSO) for 30 min in assay media at 37° C. and 5% CO2. Cells were then stimulated with 10 μM nigericin (Invivogen, tlrl-nig-5) for 90 min at 37° C. and 5% CO2 to activate NLRP3 dependent inflammasome pathway and IL-1β release in cell culture supernatant. Cells were centrifuged at 1200 RPM for 1 min and 40 μL of supernatant was transferred into fresh plates and stored at −80° C. until IL-1β analysis.
16 μL of supernatant was added to white 384 well HTRF plates, followed by addition of 4 μL of HTRF cocktail in each well. Plates were quickly centrifuged, sealed and incubated overnight at room temperature. Next day, HTRF signal was read on a Pherastar and ratio of 665/620 was calculated based on manufacturer's protocol to obtain concentration of IL-1β in cell culture supernatant.

[1] = LPS 100 ng/mL priming, read-out: IL-1B pIC50 (converted)
[2] = PBMC, LPS priming, read-out: PMBC IL-1β IC50
[3] = IL-1B pIC50 (μM), LPS 100 ng/mL priming

T1 sequence (Q96P20 whole entry): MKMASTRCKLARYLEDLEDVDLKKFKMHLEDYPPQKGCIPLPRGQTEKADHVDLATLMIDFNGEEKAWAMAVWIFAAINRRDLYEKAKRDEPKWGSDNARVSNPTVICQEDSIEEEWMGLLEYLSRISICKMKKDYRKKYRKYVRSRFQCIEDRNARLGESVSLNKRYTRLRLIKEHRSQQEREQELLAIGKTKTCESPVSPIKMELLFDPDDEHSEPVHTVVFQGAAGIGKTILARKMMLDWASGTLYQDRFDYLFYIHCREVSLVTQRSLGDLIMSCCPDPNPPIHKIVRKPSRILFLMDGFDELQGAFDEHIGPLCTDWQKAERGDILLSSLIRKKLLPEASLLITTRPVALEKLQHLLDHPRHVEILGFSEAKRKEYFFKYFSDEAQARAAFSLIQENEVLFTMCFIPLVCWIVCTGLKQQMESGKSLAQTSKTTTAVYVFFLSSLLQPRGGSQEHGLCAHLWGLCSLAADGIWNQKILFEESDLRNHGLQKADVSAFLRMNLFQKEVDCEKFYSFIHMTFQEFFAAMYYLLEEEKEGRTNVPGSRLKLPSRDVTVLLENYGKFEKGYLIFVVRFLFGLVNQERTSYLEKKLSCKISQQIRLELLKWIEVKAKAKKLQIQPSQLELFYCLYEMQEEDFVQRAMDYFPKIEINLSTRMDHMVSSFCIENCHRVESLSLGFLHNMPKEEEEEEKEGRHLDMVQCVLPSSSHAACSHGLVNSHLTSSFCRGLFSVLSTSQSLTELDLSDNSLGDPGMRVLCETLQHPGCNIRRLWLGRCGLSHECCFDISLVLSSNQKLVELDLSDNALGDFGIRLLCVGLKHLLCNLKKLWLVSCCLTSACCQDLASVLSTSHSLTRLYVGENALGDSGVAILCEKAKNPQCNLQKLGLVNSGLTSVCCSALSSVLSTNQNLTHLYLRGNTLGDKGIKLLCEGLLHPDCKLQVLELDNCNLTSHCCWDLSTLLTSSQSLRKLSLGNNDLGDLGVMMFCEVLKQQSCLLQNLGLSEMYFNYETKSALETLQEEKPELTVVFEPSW

| SMILES | IC50 [1] [µM] | IC50 [2] [µM] | other results |
| --- | --- | --- | --- |
| O=C(Nc1nc(Cl)cc(Cl)n1)NS(=O)(=O)c1cnn2c1OCCC2 [drawing 369] | > 10 | – | – |
| O=C(NC1(c2ccccc2)CCCCCC1)NS(=O)(=O)c1cnn2c1OCCC2 [drawing 377] | > 10 | – | – |
| CC(C)c1cc(Cl)nc(NC(=O)NS(=O)(=O)c2cnn3c2OCCC3)n1 [drawing 381] | > 10 | – | – |
| Cc1ccc(Br)c(NC(=O)NS(=O)(=O)c2cnn3c2OCCC3)n1 [drawing 385] | > 10 | – | – |
| O=C(NC1c2ccccc2-c2ccccc21)NS(=O)(=O)c1cnn2c1OCCC2 [drawing 370] | > 10 | – | – |
| C=C(C)c1cncc(C(=C)C)c1NC(=O)NS(=O)(=O)c1cnn2c1OCCC2 [drawing 392] | > 10 | – | – |
| CC1(C)COc2c(S(=O)(=O)NC(=O)NC3CCCCc4ccccc43)cnn2C1 (stereo not drawn) [Example 46, 6,6-dimethyl-N-((6,7,8,9-tetrahydro-5H-benzo[7]annulen-5-yl)carbamoyl)-6,7-dihydro-5H-pyrazolo[5,1-b][1,3]oxazine-3-sulfonamide] | – | > 10 | – |
| COc1cc(OC)nc(NC(=O)NS(=O)(=O)c2cnn3c2OCCC3)n1 [drawing 383] | – | – | IC50 [3]: > 10 µM |
| CC1(C)CCc2ccccc2C1NC(=O)NS(=O)(=O)c1cnn2c1OCCC2 (stereo not drawn) [drawing 366] | > 10 | – | – |
| O=C(Nc1c2c(n3c1CCC3)CCCC2=O)NS(=O)(=O)c1cnn2c1OCCC2 [drawing 395] | > 10 | – | – |
| Cc1cc(NC(=O)NS(=O)(=O)c2cnn3c2OCCC3)n(C(C)C)n1 [drawing 410] | > 10 | – | – |
| O=C(NC(c1ccccc1)c1ccccc1)NS(=O)(=O)c1cnn2c1OCCC2 [Example 15, N-(benzhydrylcarbamoyl)-6,7-dihydro-5H-pyrazolo[5,1-b][1,3]oxazine-3-sulfonamide] | – | > 10 | – |
| Cc1cc(C2CC2)nc(NC(=O)NS(=O)(=O)c2cnn3c2OCCC3)n1 [drawing 386] | > 10 | – | – |
| O=C(Nc1nc(-c2ccccc2)cc2c1CCC2)NS(=O)(=O)c1cnn2c1OCCC2 [drawing 388] | > 10 | – | – |
| O=C(Nc1c(-c2ccccc2)nc2ccccn12)NS(=O)(=O)c1cnn2c1OCCC2 [Example 10, N-((2-phenylimidazo[1,2-a]pyridin-3-yl)carbamoyl)-6,7-dihydro-5H-pyrazolo[5,1-b][1,3]oxazine-3-sulfonamide] | – | > 10 | – |
| O=C(NC1c2ccccc2-c2ccccc21)NS(=O)(=O)c1cnn2c1OCCC2 [Example 5, N-((9H-fluoren-9-yl)carbamoyl)-6,7-dihydro-5H-pyrazolo[5,1-b][1,3]oxazine-3-sulfonamide] | – | > 10 | – |
| CC1Cc2ccccc2C1NC(=O)NS(=O)(=O)c1cnn2c1OCCC2 (stereo not drawn) [drawing 371] | > 10 | – | – |
| O=C(NC1c2ccccc2CC12CCOCC2)NS(=O)(=O)c1cnn2c1OCCC2 (stereo not drawn) [drawing 367] | > 10 | – | – |
| COc1cc(C)nc(NC(=O)NS(=O)(=O)c2cnn3c2OCCC3)n1 [drawing 384] | – | – | IC50 [3]: > 10 µM |
| O=C(NN1CCCCCC1)NS(=O)(=O)c1cnn2c1OCCC2 [Example 14, N-(azepan-1-ylcarbamoyl)-6,7-dihydro-5H-pyrazolo[5,1-b][1,3]oxazine-3-sulfonamide] | – | > 10 | – |
| CC1(C)COc2c(S(=O)(=O)NC(=O)NC3CCCCc4ccccc43)cnn2C1 (stereo not drawn) [drawing 413] | > 10 | – | – |

| SMILES | IC50 [1] [µM] | IC50 [2] [µM] | other results |
| --- | --- | --- | --- |
| CC1CCCC(C)N1NC(=O)NS(=O)(=O)c1cnn2c1OCCC2 (stereo not drawn) | > 10 | – | – |
| C=C(C)c1cncc(C(=C)C)c1NC(=O)NS(=O)(=O)c1cnn2c1OCCC2 [Example 27, N-((3,5-di(prop-1-en-2-yl)pyridin-4-yl)carbamoyl)-6,7-dihydro-5H-pyrazolo[5,1-b][1,3]oxazine-3-sulfonamide] | – | > 10 | – |
| O=C(NC1(c2ccccc2)CCCCCC1)NS(=O)(=O)c1cnn2c1OCCC2 [Example 12, N-((1-phenylcycloheptyl)carbamoyl)-6,7-dihydro-5H-pyrazolo[5,1-b][1,3]oxazine-3-sulfonamide] | – | > 10 | – |
| Cc1nc(NC(=O)NS(=O)(=O)c2cnn3c2OCCC3)nc2c1CCCC2 [drawing 389] | > 10 | – | – |
| CC1CCCC(C)N1NC(=O)NS(=O)(=O)c1cnn2c1OCCC2 (mixture of isomers) [Example 7, N-((2,6-dimethylpiperidin-1-yl)carbamoyl)-6,7-dihydro-5H-pyrazolo[5,1-b][1,3]oxazine-3-sulfonamide] | – | > 10 | – |
| Cc1cc(C)nc(NC(=O)NS(=O)(=O)c2cnn3c2OCCC3)n1 [drawing 390] | > 10 | – | – |
| CC(C)(C)c1cc(NC(=O)NS(=O)(=O)c2cnn3c2OCCC3)n(C(C)(C)C)n1 [Example 36, N-((1,3-di-tert-butyl-1H-pyrazol-5-yl)carbamoyl)-6,7-dihydro-5H-pyrazolo[5,1-b][1,3]oxazine-3-sulfonamide, ammonia] | – | > 10 | – |
| CC1(C)CCc2ccccc2C1NC(=O)NS(=O)(=O)c1cnn2c1OCCC2 (stereo not drawn) [Example 1, N-((2,2-dimethyl-1,2,3,4-tetrahydronaphthalen-1-yl)carbamoyl)-6,7-dihydro-5H-pyrazolo[5,1-b][1,3]oxazine-3-sulfonamide] | – | > 10 | – |
| O=C(NN1CC2CCCC2C1)NS(=O)(=O)c1cnn2c1OCCC2 (stereo not drawn) | > 10 | – | – |
| Cc1cc(NC(=O)NS(=O)(=O)c2cnn3c2OCCC3)n(C(C)C)n1 [Example 43, N-((1-isopropyl-3-methyl-1H-pyrazol-5-yl)carbamoyl)-6,7-dihydro-5H-pyrazolo[5,1-b][1,3]oxazine-3-sulfonamide] | – | > 10 | – |
| O=C(Nc1c(-c2ccccc2)nc2ccccn12)NS(=O)(=O)c1cnn2c1OCCC2 [drawing 375] | > 10 | – | – |
| O=C(Nc1c2c(n3c1CCC3)CCCC2=O)NS(=O)(=O)c1cnn2c1OCCC2 [Example 29, N-((8-oxo-2,3,5,6,7,8-hexahydro-1H-pyrrolo[1,2-a]indol-9-yl)carbamoyl)-6,7-dihydro-5H-pyrazolo[5,1-b][1,3]oxazine-3-sulfonamide] | – | > 10 | – |
| O=C(NC1c2ccccc2CC12CCOCC2)NS(=O)(=O)c1cnn2c1OCCC2 (stereo not drawn) [Example 2, N-((1,2′,3,3′,5′,6′-hexahydrospiro[indene-2,4′-pyran]-1-yl)carbamoyl)-6,7-dihydro-5H-pyrazolo[5,1-b][1,3]oxazine-3-sulfonamide] | – | > 10 | – |
| O=C(NN1CC2CCCC2C1)NS(=O)(=O)c1cnn2c1OCCC2 (single isomer, unassigned) [Example 13a, N-((hexahydrocyclopenta[c]pyrrol-2(1H)-yl)carbamoyl)-6,7-dihydro-5H-pyrazolo[5,1-b][1,3]oxazine-3-sulfonamide] | – | > 10 | – |
| O=C(NN1CCOc2ccccc21)NS(=O)(=O)c1cnn2c1OCCC2 | > 10 | – | – |
| CC(C)c1nn(C)c(C(C)C)c1NC(=O)NS(=O)(=O)c1cnn2c1OCCC2 [Example 26, N-((3,5-diisopropyl-1-methyl-1H-pyrazol-4-yl)carbamoyl)-6,7-dihydro-5H-pyrazolo[5,1-b][1,3]oxazine-3-sulfonamide] | – | > 10 | – |
| CC(C)(C)c1cc(C(C)(C)C)nc(NC(=O)NS(=O)(=O)c2cnn3c2OCCC3)n1 [drawing 387] | > 10 | – | – |
| O=C(NC1CCOc2ccccc21)NS(=O)(=O)c1cnn2c1OCCC2 (racemic) [Example 9, N-(chroman-4-ylcarbamoyl)-6,7-dihydro-5H-pyrazolo[5,1-b][1,3]oxazine-3-sulfonamide] | – | > 10 | – |
| CC(C)(C)c1cc(NC(=O)NS(=O)(=O)c2cnn3c2OCCC3)n(C(C)(C)C)n1 [drawing 403] | > 10 | – | – |
| CC(C)c1nn(C)c(C(C)C)c1NC(=O)NS(=O)(=O)c1cnn2c1OCCC2 [drawing 391] | 1 to 10 | – | – |
| Cc1ccc(Br)c(NC(=O)NS(=O)(=O)c2cnn3c2OCCC3)n1 [Example 20, N-((3-bromo-6-methylpyridin-2-yl)carbamoyl)-6,7-dihydro-5H-pyrazolo[5,1-b][1,3]oxazine-3-sulfonamide] | – | > 10 | – |
